Ki and inhibition data for 23 molecules are collected here from patent publication EP3628672A1 (priority 2018, dated 2020).

The target of assay [1] is T1, purified LasB protein from P. aeruginosa (Pseudomonas aeruginosa, UniProt P14756).
T1 construct: purchased Merck or Charles River Laboratories
Put plainly: Fluorometric assay to determine Ki (Abz-Ala-Gly-Leu-Ala-p-Nitro-Benzyl-Amide substrate). In kind it is biochemical. The method, boiled down: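 Purified P. aeruginosa LasB (10–140 ng/ml) with 250 µM Abz-Ala-Gly-Leu-Ala-p-nitrobenzylamide in 50 mM Tris-HCl pH 7.4, 2.5 mM CaCl2, 0.01% Triton X100, 37 °C; hydrolysis fluorescence (Ex 340/Em 415 nm) followed over 30 min, inhibitor 0.0016–200 µM. Ki = IC50/(1+[S]/Km), Km 214 µM.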

Assay [2] addresses T2, LasB (Pseudomonas aeruginosa, UniProt P14756).
T2 construct: uses as source of enzyme dialysed supernatant from P. aeruginosa PAO1; endogenous in cells; host or cells: P. aeruginosa PAO1 culture supernatant, filtered and dialysed
Kind of assay: Elastin assay to determine % inhibition (Elastin Congo-Red, dialysed culture supernatant). Format: biochemical, P. aeruginosa PAO1. Conditions: read-out: Elastin hydrolysis % inhibition @ 50 / 25 µM inhibitor concentration. The method, boiled down: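 Enzyme source was dialysed PAO1 culture supernatant (50 mM Tris-HCl pH 7.4, 2.5 mM CaCl2), mixed with Elastin Congo-Red and 0.01% Triton X-100. Compound was routinely 50 to 1.56 µM, incubated overnight at 37 °C with shaking. Dye release at OD495 gave % inhibition relative to DMSO and no-enzyme controls.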

Read-outs that look alike come from different tables or passages of the source. Bounds are passed on as bounds.

T1 sequence (P14756 198-498): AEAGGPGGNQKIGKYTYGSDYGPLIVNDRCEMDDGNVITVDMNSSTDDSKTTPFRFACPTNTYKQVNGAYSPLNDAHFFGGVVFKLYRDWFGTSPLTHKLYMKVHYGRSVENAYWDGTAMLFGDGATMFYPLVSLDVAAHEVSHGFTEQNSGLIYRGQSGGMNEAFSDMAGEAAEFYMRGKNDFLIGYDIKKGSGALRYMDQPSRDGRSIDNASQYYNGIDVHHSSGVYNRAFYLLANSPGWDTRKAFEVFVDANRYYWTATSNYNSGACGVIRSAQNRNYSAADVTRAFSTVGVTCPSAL
T2 sequence (P14756 198-498): as above

One may read the Ki as the dissociation constant of the complex between target and ligand, obtained from inhibition or displacement. In turn, `CN1CCC(C(=O)N2CCN(CCCn3cc(-c4csc(CNC(=O)C5(CC(=O)O)Cc6ccccc6C5)n4)cn3)CC2)CC1` [Example 114, 2-[2-[[4-[1-[3-[4-(1-methylpiperidine-4-carbonyl)piperazin-1-yl]propyl]pyrazol-4-yl]thiazol-2-yl]methylcarbamoyl]indan-2-yl]acetic acid] showed an inhibitory constant (Ki) in assay [1] of 50 to 200 nM. Further, the inhibition at 25 µM in assay [2] fell in the range of 60 to 75%.
Take `CN1CCN(CCCn2cc(-c3csc(CNC(=O)C4(CC(=O)O)Cc5ccccc5C4)n3)cn2)CC1=O` [Example 116, 2-[2-[[4-[1-[3-(4-methyl-3-oxo-piperazin-1-yl)propyl]pyrazol-4-yl]thiazol-2-yl]methylcarbamoyl]indan-2-yl]acetic acid]: the Ki in assay [1] was 50 to 200 nM. Further, the inhibition at 25 µM in assay [2] lay in the range of 60 to 75%.
The molecule `CC(=O)N1CCN(CCn2cc(-c3csc(CNC(=O)C4(CC(=O)O)Cc5ccccc5C4)n3)cn2)CC1` [Example 119, 2-[2-[[4-[1-[2-(4-acetylpiperazin-1-yl)ethyl]pyrazol-4-yl]thiazol-2-yl]methylcarbamoyl]indan-2-yl]acetic acid] registered a Ki in assay [1] of 50 to 200 nM. In addition, in assay [2], the inhibition at 25 µM is 60 to 75%.
On the same counts, the results for `C[n+]1ccc(Cn2cc(-c3csc(CNC(=O)C4(CC(=O)[O-])Cc5ccccc5C4)n3)cn2)cc1` [Example 120, 2-[2-[[4-[1-[(1-methylpyridin-1-ium-4-yl)methyl]pyrazol-4-yl]thiazol-2-yl]methylcarbamoyl]indan-2-yl]acetate] are 50 to 200 nM and 60 to 75%.
The molecule `COc1ccc(-c2csc(CNC(=O)C3(CC(=O)O)Cc4ccccc4C3)n2)cc1S(=O)(=O)N1CCC(N(C)C)CC1` [Example 121, 2-[2-[[4-[3-[[4-(dimethylamino)-1-piperidyl]sulfonyl]-4-methoxy-phenyl]thiazol-2-yl]methylcarbamoyl]indan-2-yl]acetic acid] registered a Ki in assay [1] of 50 to 200 nM. For the same molecule, the inhibition at 25 µM in assay [2] lay within 60 to 75%.
Take `COc1ccc(-c2csc(CNC(=O)C3(CC(=O)O)Cc4ccccc4C3)n2)cc1S(=O)(=O)N1CCN(C)CC1` [Example 122]: the Ki in assay [1] (Ki calculated from IC50, [S] = 250 µM, Km = 214 µM, 37°C, pH 7.4) is 50 to 200 nM. In addition, the inhibition at 25 µM in assay [2] is over 75%.
In turn, `COc1ccc(-c2csc(CNC(=O)C3(CC(=O)O)Cc4cc(F)c(F)cc4C3)n2)cc1S(=O)(=O)N1CCC(N(C)C)CC1` [Example 123, 2-[2-[[4-[3-[[4-(dimethylamino)-1-piperidyl]sulfonyl]-4-methoxy-phenyl]thiazol-2-yl]methylcarbamoyl]-5,6-difluoro-indan-2-yl]acetic acid] yielded a Ki in assay [1] of under 50 nM. The inhibition at 25 µM in assay [2] lay in the range of 60 to 75%.
`COc1ccc(-c2csc(CNC(=O)C3(CC(=O)[O-])Cc4cc(F)c(F)cc4C3)n2)cc1S(=O)(=O)N1CCC([N+](C)(C)C)CC1` [Example 124, 2-[5,6-difluoro-2-[[4-[4-methoxy-3-[[4-(trimethylammonio)-1-piperidyl]sulfonyl]phenyl]thiazol-2-yl]methylcarbamoyl]indan-2-yl] acetate] gave a Ki in assay [1] of 50 to 200 nM. For the same molecule, in assay [2], the inhibition at 25 µM is 60 to 75%.
Molecule `COc1ccc(S(=O)(=O)N2CCC(N(C)C)CC2)cc1-c1csc(CNC(=O)C2(CC(=O)O)Cc3cc(F)c(F)cc3C2)n1` [Example 125, 2-[2-[[4-[5-[[4-(dimethylamino)-1-piperidyl]sulfonyl]-2-methoxy-phenyl]thiazol-2-yl]methylcarbamoyl]-5,6-difluoro-indan-2-yl]acetic acid] gave a Ki in assay [1] of 50 to 200 nM. In addition, the inhibition at 25 µM in assay [2] lay within 10 to 60%.
For the molecule `COc1ccc(S(=O)(=O)N2CCC([N+](C)(C)C)CC2)cc1-c1csc(CNC(=O)C2(CC(=O)[O-])Cc3cc(F)c(F)cc3C2)n1` [Example 126, 2-[5,6-difluoro-2-[[4-[2-methoxy-5-[[4-(trimethylammonio)-1-piperidyl]sulfonyl]phenyl]thiazol-2-yl]methylcarbamoyl]indan-2-yl]acetate], the Ki in assay [1] lay within 50 to 200 nM. Further, the inhibition at 25 µM in assay [2] lay in the range of 60 to 75%.
The corresponding values for `CN1CCN(S(=O)(=O)c2cccc(-c3csc(CNC(=O)C4(CC(=O)O)Cc5ccccc5C4)n3)c2)CC1` [Example 127, 2-[2-[[4-[3-(4-methylpiperazin-1-yl)sulfonylphenyl]thiazol-2-yl]methylcarbamoyl]indan-2-yl]acetic acid] are 50 to 200 nM and over 75%.
As for `C[N+]1(C)CCN(S(=O)(=O)c2cccc(-c3csc(CNC(=O)C4(CC(=O)[O-])Cc5ccccc5C4)n3)c2)CC1` [Example 128, 2-[2-[[4-[3-(4,4-dimethylpiperazin-4-ium-1-yl)sulfonylphenyl]thiazol-2-yl]methylcarbamoyl]indan-2-yl]acetate], the Ki in assay [1] fell in the range of 200 to 10000 nM. Moreover, the inhibition at 25 µM in assay [2] is 10 to 60%.
In assay [1], `CN(C)CCNS(=O)(=O)c1cccc(-c2csc(CNC(=O)C3(CC(=O)O)Cc4ccccc4C3)n2)c1` [Example 129, 2-[2-[[4-[3-[2-(dimethylamino)ethylsulfamoyl]phenyl]thiazol-2-yl]methylcarbamoyl]indan-2-yl]acetic acid] registered a Ki of 200 to 10000 nM. Also, in assay [2], the inhibition at 25 µM fell in the range of 60 to 75%.
For the molecule `CN1CCN(S(=O)(=O)c2ccc(-c3csc(CNC(=O)C4(CC(=O)O)Cc5ccccc5C4)n3)cc2)CC1` [Example 130, 2-[2-[[4-[4-(4-methylpiperazin-1-yl)sulfonylphenyl]thiazol-2-yl]methylcarbamoyl]indan-2-yl]acetic acid], the Ki in assay [1] lay within 50 to 200 nM. In addition, the inhibition at 25 µM in assay [2] lay in the range of 60 to 75%.
With `CN1CCN(S(=O)(=O)c2cc(-c3csc(CNC(=O)C4(CC(=O)O)Cc5ccccc5C4)n3)ccc2OCCN2CCOCC2)CC1` [Example 132, 2-[2-[[4-[3-(4-methylpiperazin-1-yl)sulfonyl-4-(2-morpholinoethoxy)phenyl]thiazol-2-yl]methylcarbamoyl]indan-2-yl]acetic acid], the Ki in assay [1] is under 50 nM. For the same molecule, in assay [2], the inhibition at 25 µM was over 75%.
Take `CN1CCN(S(=O)(=O)c2cc(-c3csc(CNC(=O)C4(CC(=O)O)Cc5ccccc5C4)n3)ccc2OCCCN2CCOCC2)CC1` [Example 133, 2-[2-[[4-[3-(4-methylpiperazin-1-yl)sulfonyl-4-(3-morpholinopropoxy)phenyl]thiazol-2-yl]methylcarbamoyl]indan-2-yl]acetic acid]: in assay [1], the inhibition constant (Ki) was under 50 nM. Moreover, the inhibition at 25 µM in assay [2] lay within 60 to 75%.
`CN(C)C1CCN(S(=O)(=O)c2cc(-c3csc(CNC(=O)C4(CC(=O)O)Cc5cc(F)c(F)cc5C4)n3)ccc2OCCN2CCOCC2)CC1` [Example 134, 2-[2-[[4-[3-[[4-(dimethylamino)-1-piperidyl]sulfonyl]-4-(2-morpholinoethoxy)phenyl]thiazol-2-yl]methylcarbamoyl]-5,6-difluoro-indan-2-yl]acetic acid]: in assay [1], the Ki was in the range of 50 to 200 nM. For the same molecule, in assay [2], the inhibition at 25 µM lay in the range of 60 to 75%.
On to `CS(=O)(=O)c1cc(-c2csc(CNC(=O)C3(CC(=O)O)Cc4ccccc4C3)n2)ccc1OCCN1CCOCC1` [Example 135, 2-[2-[[4-[3-methylsulfonyl-4-(2-morpholinoethoxy)phenyl]thiazol-2-yl]methylcarbamoyl]indan-2-yl]acetic acid], for which the Ki in assay [1] was under 50 nM. The inhibition at 25 µM in assay [2] is over 75%.
Molecule `C[N+]1(CCOc2ccc(-c3csc(CNC(=O)C4(CC(=O)[O-])Cc5ccccc5C4)n3)cc2S(C)(=O)=O)CCOCC1` [Example 136, 2-[2-[[4-[4-[2-(4-methylmorpholin-4-ium-4-yl)ethoxy]-3-methylsulfonyl-phenyl]thiazol-2-yl]methylcarbamoyl]indan-2-yl]acetate] showed a Ki in assay [1] of 50 to 200 nM. In assay [2], the inhibition at 25 µM lay in the range of 60 to 75%.
The corresponding values for `COc1ccc(-c2csc(CNC(=O)C3(CC(=O)O)Cc4ccccc4C3)n2)cc1C(=O)N1CCC(N(C)C)CC1` [Example 137, 2-[2-[[4-[3-[4-(dimethylamino)piperidine-1-carbonyl]-4-methoxy-phenyl]thiazol-2-yl]methylcarbamoyl]indan-2-yl]acetic acid] are 50 to 200 nM and 10 to 60%.
Turning to `COc1ccc(-c2csc(CNC(=O)C3(CC(=O)[O-])Cc4ccccc4C3)n2)cc1C(=O)N1CCC([N+](C)(C)C)CC1` [Example 138, 2-[2-[[4-[4-methoxy-3-[4-(trimethylammonio)piperidine-1-carbonyl]phenyl]thiazol-2-yl]methylcarbamoyl]indan-2-yl]acetate], the Ki in assay [1] lay in the range of 200 to 10000 nM. In addition, the inhibition at 25 µM in assay [2] was in the range of 10 to 60%.
Regarding `CN(C)C1CCN(S(=O)(=O)c2cc(-c3csc(CNC(=O)C4(CC(=O)O)Cc5cc(F)c(F)cc5C4)n3)ccc2OCCCN2CCCC2)CC1` [Example 139, 2-[2-[[4-[3-[[4-(dimethylamino)-1-piperidyl]sulfonyl]-4-(3-pyrrolidin-1-ylpropoxy)phenyl]thiazol-2-yl]methylcarbamoyl]-5,6-difluoro-indan-2-yl]acetic acid], the Ki in assay [1] is 50 to 200 nM. Also, the inhibition at 25 µM in assay [2] is 10 to 60%.
In assay [1], `C[N+]1(CCc2ccc(-c3csc(CNC(=O)C4(CC(=O)[O-])Cc5ccccc5C4)n3)cn2)CCOCC1` [Example 141, 2-[2-[[4-[6-[2-(4-methylmorpholin-4-ium-4-yl)ethyl]-3-pyridyl]thiazol-2-yl]methylcarbamoyl]indan-2-yl]acetate] yielded a Ki of 50 to 200 nM. In addition, in assay [2], the inhibition at 25 µM is 60 to 75%.
